Reference: patent US10464922B2, “Metalloenzyme inhibitor compounds” (NQP 1598 LTD., priority 2015, dated 2019)
Values after ≈ are worked out from the molar mass of the structure shown.

What was measured:
[1] = system: A. fumigatus; test: A. fumigatus MIC at 100% growth inhibition (CLSI M38-A2); type: cell-based, Aspergillus fumigatus; conditions: 100% growth inhibition, range tested 8-0.0078 μg/mL, values given as ranges; for MIC: Aspergillus fumigatus, read-out: Aspergillus fumigatus MIC
Experimental: A. fumigatus MICs were determined at 100% growth inhibition following CLSI guidelines at a concentration range of 8-0.0078 μg/mL (CLSI M38-A2).

[2] = system: C. albicans (ATCC 90028); test: Minimum inhibitory concentration, in vitro broth microdilution assay (CLSI M27-A2); type: cell-based, Candida albicans; conditions: ATCC 90028, about 50% growth reduction, 2 days at 36° C., range tested 8-0.0078 μg/mL, values given as ranges; for MIC: Candida albicans, ATCC90028, 48 h, read-out: Candida albicans MIC
Experimental: The antifungal potency of the test compounds was measured using the in vitro broth microdilution assay under assay conditions described by the Clinical and Laboratory Standards Institute (CLSI M27-A2). The test compounds were dissolved in 100% DMSO, suspended completely by sonication or vortexing, diluted by 2-fold serial titrations in the same vehicle, for a total of 11 test concentrations. A 4 μL aliquot of each dilution was added to 196 μL of RPMI-1640+MOPS medium seeded with the C. albicans (ATCC 90028) suspension in wells of a 96 well plate (fungal cell count: 1×10^3 to 1×10^4 colony forming units per mL). The final volume was 200 μL in each well and the final DMSO concentration was 2 percent. The inoculated plates were incubated for 2 days at 36° C. Following incubation, the test plates were visually examined and wells were scored for growth to define the minimum inhibitory concentration. […] Each test substance was evaluated in duplicate. Vehicle-control and an active reference agent (e.g., posaconazole) were used as blank and positive controls, respectively.

Row | Structure (SMILES) | MIC [1] [µg/mL] | MIC [2] [µg/mL] | Aspergillus fumigatus MIC [1] [µg/mL] | Candida albicans MIC [2] [µg/mL]
1 | OC(c1cn(-c2ccc(N3CCN(c4ccc(-c5ccc(C(F)(F)[C@](O)(Cn6cnnn6)c6ccc(F)cc6F)nc5)cc4)CC3)cc2)nn1)C(F)(F)F (stereo partly drawn) [Example 94, (2R)-2-(2,4-difluorophenyl)-1,1-difluoro-3-(1H-tetrazol-1-yl)-1-(5-(4-(4-(4-(4-(2,2,2-trifluoro-1-hydroxyethyl)-1H-1,2,3-triazol-1-yl)phenyl)piperazin-1-yl)phenyl)pyridin-2-yl) propan-2-ol] | 0.25 to 1 (≈ 0.331 to 1.33 µM) | 0.0078 to 0.01 (≈ 0.0103 to 0.0133 µM) | – | –
2 | CCn1ncn(-c2ccc(N3CCN(c4ccc(-c5ccc(C(F)(F)[C@](O)(Cn6cnnn6)c6ccc(F)cc6F)nc5)cc4)CC3)cc2)c1=O [Example 54, (R)-4-(4-(4-(4-(6-(2-(2,4-difluorophenyl)-1,1-difluoro-2-hydroxy-3-(1H-tetrazol-1-yl)propyl)pyridin-3-yl)phenyl)piperazin-1-yl)phenyl)-2-ethyl-2,4-dihydro-3H-1,2,4-triazol-3-one] | 0.062 to 0.25 (≈ 0.0885 to 0.357 µM) | 0.01 to 0.1 (≈ 0.0143 to 0.143 µM) | – | –
3 | N#Cc1ccc(N2CCN(C(=O)c3ccc(-c4ccc(C(F)(F)[C@](O)(Cn5cnnn5)c5ccc(F)cc5F)nc4)cc3)CC2)cc1 [Example 19, (R)-4-(4-(4-(6-(2-(2,4-difluorophenyl)-1,1-difluoro-2-hydroxy-3-(1H-tetrazol-1-yl)propyl)pyridin-3-yl)benzoyl)piperazin-1-yl) benzonitrile] | > 8 | 0.0078 to 0.01 (≈ 0.0121 to 0.0156 µM) | – | –
4 | N#Cc1ccc(N2CCN(c3ccc(-c4ccc(C(F)(F)[C@](O)(Cn5cnnn5)c5ccc(F)cc5F)nc4)cc3)CC2)cc1 [Example 1, (R)-4-(4-(4-(6-(2-(2,4-difluorophenyl)-1,1-difluoro-2-hydroxy-3-(1H-tetrazol-1-yl)propyl)pyridin-3-yl)phenyl)piperazin-1-yl) benzonitrile] | 0.25 to 1 (≈ 0.407 to 1.63 µM) | 0.0078 to 0.01 (≈ 0.0127 to 0.0163 µM) | – | –
5 | OC(CC(F)(F)F)c1ccc(N2CCN(c3ccc(-c4ccc(C(F)(F)[C@](O)(Cn5cncn5)c5ccc(F)cc5F)nc4)cc3)CC2)cn1 (single isomer, unassigned; (-)) [120(−)] | – | 0.01 to 0.1 (≈ 0.0143 to 0.143 µM) | 0.25 to 1.0 | –
6 | CN(C)Cc1ccc(N2CCN(c3ccc(-c4ccc(C(F)(F)[C@](O)(Cn5cnnn5)c5ccc(F)cc5F)nc4)cc3)CC2)cn1 [Example 33, (R)-2-(2,4-difluorophenyl)-1-(5-(4-(4-(6-((dimethylamino)methyl)pyridin-3-yl)piperazin-1-yl)phenyl)pyridin-2-yl)-1,1-difluoro-3-(1H-tetrazol-1-yl) propan-2-ol] | 1 to 4 (≈ 1.54 to 6.18 µM) | 0.01 to 0.1 (≈ 0.0154 to 0.154 µM) | – | –
7 | OC(CC(F)(F)F)c1ccc(N2CCN(c3ccc(-c4ccc(C(F)(F)[C@](O)(Cn5cnnn5)c5ccc(F)cc5F)nc4)cc3)CC2)cn1 (stereo partly drawn) [Example 13, 1-(5-(4-(4-(6-((R)-2-(2,4-difluorophenyl)-1,1-difluoro-2-hydroxy-3-(1H-tetrazol-1-yl)propyl)pyridin-3-yl)phenyl)piperazin-1-yl)pyridin-2-yl)-3,3,3-trifluoropropan-1-ol] | – | 0.0078 to 0.01 (≈ 0.0111 to 0.0142 µM) | 0.25 to 1.0 | –
8 | CC(C)(C)Cc1nc2ccc(N3CCN(c4ccc(-c5ccc(C(F)(F)[C@](O)(Cn6cnnn6)c6ccc(F)cc6F)nc5)cc4)CC3)cc2[nH]1 [Example 90, (R)-2-(2,4-difluorophenyl)-1,1-difluoro-1-(5-(4-(4-(2-neopentyl-1H-benzo [d]imidazol-6-yl)piperazin-1-yl)phenyl)pyridin-2-yl)-3-(1H-tetrazol-1-yl) propan-2-ol] | > 8 | 0.0078 to 0.01 (≈ 0.0111 to 0.0143 µM) | – | –
9 | CC(C)n1ncn(-c2ccc(N3CCN(c4ccc(-c5ccc(C(F)(F)[C@](O)(Cn6cnnn6)c6ccc(F)cc6F)nc5)cc4)CC3)cc2)c1=O [Example 52, (R)-4-(4-(4-(4-(6-(2-(2,4-difluorophenyl)-1,1-difluoro-2-hydroxy-3-(1H-tetrazol-1-yl)propyl)pyridin-3-yl)phenyl)piperazin-1-yl)phenyl)-2-isopropyl-2,4-dihydro-3H-1,2,4-triazol-3-one] | 0.062 to 0.25 (≈ 0.0867 to 0.35 µM) | 0.0078 to 0.01 (≈ 0.0109 to 0.014 µM) | – | –
10 | OC(CC(F)(F)F)c1ccc(N2CCN(c3ccc(-c4ccc(C(F)(F)[C@](O)(Cn5cnnn5)c5ccccc5F)nc4)cc3)CC2)cn1 (single isomer, unassigned; (+)) [122(+)] | – | – | 0.25 to 1.0 | ≤0.0078 to 0.010
11 | O[C@@](Cn1cnnn1)(c1ccc(F)cc1F)C(F)(F)c1ccc(-c2ccc(N3CCN(c4ccc(F)cc4)CC3)cc2)cn1 [Example 2, (R)-2-(2,4-difluorophenyl)-1,1-difluoro-1-(5-(4-(4-(4-fluorophenyl)piperazin-1-yl)phenyl)pyridin-2-yl)-3-(1H-tetrazol-1-yl) propan-2-ol] | 0.25 to 1 (≈ 0.411 to 1.65 µM) | 0.0078 to 0.01 (≈ 0.0128 to 0.0165 µM) | – | –
12 | CCC(C(C)O)n1ncn(-c2ccc(N3CCN(c4ccc(-c5ccc(C(F)(F)[C@](O)(Cn6cnnn6)c6ccc(F)cc6F)nc5)cc4)CC3)cc2)c1=O (some centres unmarked) [Example 93] | 0.25 to 1 (≈ 0.329 to 1.32 µM) | 0.0078 to 0.01 (≈ 0.0103 to 0.0132 µM) | – | –
13 | CC[C@@H]([C@H](C)O)n1ncn(-c2ccc(N3CCN(c4ccc(-c5ccc(C(F)(F)[C@](O)(Cn6cnnn6)c6ccccc6F)nc5)cc4)CC3)cn2)c1=O [102(−), 4-(5-(4-(4-(6-((R)-1,1-difluoro-2-(2-fluorophenyl)-2-hydroxy-3-(1H-tetrazol-1-yl)propyl)pyridin-3-yl)phenyl)piperazin-1-yl)pyridin-2-yl)-2-((2S,3S)-2-hydroxypentan-3-yl)-2,4-dihydro-3H-1,2,4-triazol-3-one] | – | – | >8 | 0.10 to 1.0
14 | CCC(C)n1ncn(-c2ccc(N3CCN(c4ccc(-c5ccc(C(F)(F)[C@](O)(Cn6cnnn6)c6ccc(F)cc6F)nc5)cc4)CC3)cc2)c1=O (stereo partly drawn) [Example 55, 2-(sec-butyl)-4-(4-(4-(4-(6-((R)-2-(2,4-difluorophenyl)-1,1-difluoro-2-hydroxy-3-(1H-tetrazol-1-yl)propyl)pyridin-3-yl)phenyl)piperazin-1-yl)phenyl)-2,4-dihydro-3H-1,2,4-triazol-3-one] | 0.062 to 0.25 (≈ 0.0851 to 0.343 µM) | 0.01 to 0.1 (≈ 0.0137 to 0.137 µM) | – | –
15 | CC(C)C(C)C(O)c1ccc(N2CCN(c3ccc(-c4ccc(C(F)(F)[C@](O)(Cn5cnnn5)c5ccc(F)cc5F)nc4)cc3)CC2)cn1 (stereo partly drawn) [Example 68, 1-(5-(4-(4-(6-((R)-2-(2,4-difluorophenyl)-1,1-difluoro-2-hydroxy-3-(1H-tetrazol-1-yl)propyl)pyridin-3-yl)phenyl)piperazin-1-yl)pyridin-2-yl)-2,3-dimethylbutan-1-ol] | 0.25 to 1 (≈ 0.362 to 1.45 µM) | 0.0078 to 0.01 (≈ 0.0113 to 0.0145 µM) | – | –
16 | OC(CC(F)(F)F)c1ccc(N2CCN(c3ccc(-c4ccc(C(F)(F)[C@](O)(Cn5cnnn5)c5ccccc5F)nc4)cc3)CC2)cn1 (single isomer, unassigned; (-)) [122(−)] | – | – | >8 | 1.0 to 8.0
17 | OC(CC(F)(F)F)c1ccc(N2CCN(c3ccc(-c4ccc(C(F)(F)[C@](O)(Cn5cnnn5)c5cccc(F)c5)nc4)cc3)CC2)cn1 (single isomer, unassigned; (-)) [119(−)] | > 8 | 0.1 to 1 (≈ 0.146 to 1.46 µM) | – | –
18 | N#Cc1ccc(N2CCN(c3ccc(-c4ccc(C(F)(F)[C@](O)(Cn5cnnn5)c5ccc(F)cc5F)nc4)cc3)CC2=O)cc1 [Example 25, (R)-4-(4-(4-(6-(2-(2,4-difluorophenyl)-1,1-difluoro-2-hydroxy-3-(1H-tetrazol-1-yl)propyl)pyridin-3-yl)phenyl)-2-oxopiperazin-1-yl) benzonitrile] | 0.25 to 1 (≈ 0.398 to 1.59 µM) | 0.0078 to 0.01 (≈ 0.0124 to 0.0159 µM) | – | –
19 | CN(C)Cc1ccc(N2CCN(c3ccc(-c4ccc(C(F)(F)[C@](O)(Cn5cnnn5)c5ccc(F)cc5F)nc4)cc3)CC2)cc1 [Example 30] | 0.25 to 1 (≈ 0.387 to 1.55 µM) | 0.0078 to 0.01 (≈ 0.0121 to 0.0155 µM) | – | –
20 | N#Cc1ccc2sc(N3CCN(c4ccc(-c5ccc(C(F)(F)[C@](O)(Cn6cnnn6)c6ccc(F)cc6F)nc5)cc4)CC3)nc2c1 [Example 76, (R)-2-(4-(4-(6-(2-(2,4-difluorophenyl)-1,1-difluoro-2-hydroxy-3-(1H-tetrazol-1-yl)propyl)pyridin-3-yl)phenyl)piperazin-1-yl) benzo [d] thiazole-5-carbonitrile] | > 8 | 0.0078 to 0.01 (≈ 0.0116 to 0.0149 µM) | – | –
21 | O[C@@](Cn1cnnn1)(c1ccc(F)cc1F)C(F)(F)c1ccc(-c2ccc(N3CCN(c4ccc5ncn(Cc6ccccc6)c5c4)CC3)cc2)cn1 [Example 98, (R)-1-(5-(4-(4-(1-benzyl-1H-benzo [d]imidazol-6-yl)piperazin-1-yl)phenyl)pyridin-2-yl)-2-(2,4-difluorophenyl)-1,1-difluoro-3-(1H-tetrazol-1-yl) propan-2-ol] | > 8 | 0.01 to 0.1 (≈ 0.0139 to 0.139 µM) | – | –
22 | CC[C@@H]([C@H](C)O)n1cnc(-c2ccc(N3CCN(c4ccc(-c5ccc(C(F)(F)[C@](O)(Cn6cnnn6)c6ccc(F)cc6F)nc5)cc4)CC3)cc2)n1 [Example 92, (2S,3S)-3-(3-(4-(4-(4-(6-(2-(2,4-difluorophenyl)-1,1-difluoro-2-hydroxy-3-(1H-tetrazol-1-yl)propyl)pyridin-3-yl)phenyl)piperazin-1-yl)phenyl)-1H-1,2,4-triazol-1-yl) pentan-2-ol] | 0.25 to 1 (≈ 0.337 to 1.35 µM) | 0.0078 to 0.01 (≈ 0.0105 to 0.0135 µM) | – | –
